The values below come from patent publication US5225438A, “Aryl derivatives” (Imperial Chemical Industries PLC, priority 1990, dated 1993).

pIC50: −log10 of the molar value.

The target in assay [1] is T1, 5-LO (Homo sapiens, UniProt P09917).
T1 construct: incubating a test compound with heparinised human blood, prior to challenge with the calcium ionophore A23187; endogenous in cells; host or cells: blood cells in heparinised human whole blood
T1 sequence (P09917 1-674): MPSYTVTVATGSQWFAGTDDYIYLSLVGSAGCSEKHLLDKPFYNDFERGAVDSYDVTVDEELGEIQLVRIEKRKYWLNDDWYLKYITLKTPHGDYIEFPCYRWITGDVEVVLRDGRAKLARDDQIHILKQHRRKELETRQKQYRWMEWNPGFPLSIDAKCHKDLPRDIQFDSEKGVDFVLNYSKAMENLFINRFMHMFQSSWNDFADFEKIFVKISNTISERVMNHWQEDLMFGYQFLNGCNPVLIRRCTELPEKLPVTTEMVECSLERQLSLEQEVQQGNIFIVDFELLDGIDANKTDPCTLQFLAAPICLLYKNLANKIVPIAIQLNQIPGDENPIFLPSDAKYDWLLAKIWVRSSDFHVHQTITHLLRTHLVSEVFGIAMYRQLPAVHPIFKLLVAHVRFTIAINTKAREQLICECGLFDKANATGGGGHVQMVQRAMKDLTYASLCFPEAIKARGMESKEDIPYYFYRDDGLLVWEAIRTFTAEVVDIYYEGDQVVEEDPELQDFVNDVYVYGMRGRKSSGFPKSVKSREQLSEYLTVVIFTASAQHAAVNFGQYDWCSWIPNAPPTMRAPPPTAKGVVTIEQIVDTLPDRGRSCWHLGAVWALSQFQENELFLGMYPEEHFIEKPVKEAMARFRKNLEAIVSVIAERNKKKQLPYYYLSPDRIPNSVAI
Kind of assay: Test a) in vitro human blood challenged with calcium ionophore A23187, LTB4 radioimmunoassay. It counts as cell-based. The conditions noted are these: heparinised human blood. The protocol:
a) An in vitro assay system involving incubating a test compound with heparinised human blood, prior to challenge with the calcium ionophore A23187 and then indirectly measuring the inhibitory effects on 5-LO by assaying the amount of LTB4 using specific radioimmunoassays described by Carey and Forder (Prostaglandins, Leukotrienes Med., 1986, 22, 57; Prostaglandins, 1984, 28, 666; Brit. J. Pharmacol., 1985, 84, 34P) which involves the use of a protein-LTB4 conjugate produced using the procedure of Young et alia (Prostaglandins, 1983, 26(4), 605-613). The effects of a test compound on the enzyme cyclooxygenase (which is involved in the alternative metabolic pathway for arachidonic acid and gives rise to prostaglandins, thromboxanes and related metabolites) may be measured at the same time using the specific radioimmunoassay for thromboxane B2 (TxB2) described by Carey and Forder (see above). This test provides an indication of the effects of a test compound against 5-LO and also cyclooxygenase in the presence of blood cells and proteins. It permits the selectivity of the inhibitory effect on 5-LO or cyclooxygenase to be assessed.

The target of assay [2] is T2, 5-LO (Rattus norvegicus, UniProt P12527).
T2 construct: liberation of LTB4 induced by zymosan within an air pouch generated within the subcutaneous tissue of the back of male rats; from tissue; host or cells: live male rats, zymosan-inflamed subcutaneous air pouch (endogenous enzyme)
T2 sequence (P12527 1-673): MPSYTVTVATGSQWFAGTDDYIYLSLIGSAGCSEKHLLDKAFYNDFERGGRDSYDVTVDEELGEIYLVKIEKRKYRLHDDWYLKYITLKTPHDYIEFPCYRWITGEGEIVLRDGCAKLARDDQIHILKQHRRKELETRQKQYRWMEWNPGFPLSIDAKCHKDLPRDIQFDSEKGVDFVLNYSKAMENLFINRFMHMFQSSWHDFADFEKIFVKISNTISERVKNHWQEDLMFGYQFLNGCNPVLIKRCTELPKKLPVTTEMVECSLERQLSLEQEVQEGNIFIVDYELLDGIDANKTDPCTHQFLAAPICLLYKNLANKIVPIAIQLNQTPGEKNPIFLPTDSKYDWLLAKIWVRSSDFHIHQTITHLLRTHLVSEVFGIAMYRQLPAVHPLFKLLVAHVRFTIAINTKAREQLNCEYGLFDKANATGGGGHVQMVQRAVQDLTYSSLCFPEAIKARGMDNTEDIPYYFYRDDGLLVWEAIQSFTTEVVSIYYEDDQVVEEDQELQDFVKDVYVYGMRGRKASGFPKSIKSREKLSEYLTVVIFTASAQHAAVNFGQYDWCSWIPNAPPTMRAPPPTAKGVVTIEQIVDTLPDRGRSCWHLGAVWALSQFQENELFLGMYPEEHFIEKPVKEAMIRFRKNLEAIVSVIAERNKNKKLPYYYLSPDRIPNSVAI
Put plainly: Test c) in vivo zymosan-induced liberation of LTB4 within an air pouch of male rats. To be noted: 3 h; test c), oral. The protocol: c) An in vivo system involving measuring the effects of a test compound administered orally against the liberation of LTB4 induced by zymosan within an air pouch generated within the subcutaneous tissue of the back of male rats. The rats are anaesthetised and air pouches are formed by the injection of sterile air (20 ml). A further injection of air (10 ml) is similarly given after 3 days. At 6 days after the initial air injection the test compound is administered (usually orally as the suspension produced when a solution of the test compound in dimethylsulphoxide is added to hydroxypropylmethylcellulose), followed by the intrapouch injection of zymosan (1 ml of a 1% suspension in physiological saline). After 3 hours the rats are killed, the air pouches are lavaged with physiological saline, and the specific radioimmunoassay described above is used to assay LTB4 in the washings. This test provides an indication of inhibitory effects against 5-LO in an inflammatory milieu.

For the molecule `COC1(c2cc(F)cc(Sc3ccc(C(F)(F)c4ccc(F)cc4)cc3)c2)CCOCC1` [4-[5-fluoro-3-(4-(4-fluoro-alpha,alpha-difluorobenzyl)phenylthio)phenyl]-4-methoxytetrahydropyran], in assay [1], the negative logarithm of the IC50 (pIC50) was 6.85. In addition, the ED50 in assay [2] was 1 mg/kg.

`COC1(c2cccc(Sc3ccc(Cc4ccc(F)cc4)cc3)c2)CCOCC1` [4-[3-(4-(4-fluorobenzyl)phenylthio)phenyl]-4-methoxytetrahydropyran]: the pIC50 in assay [1] is 7.40. Further, the ED50 in assay [2] turned out to be 2 mg/kg.

One may read the pIC50 as −log10 of the IC50, conventionally taken in molar units. By ED50 is commonly meant the dose that gives a 50% effect, or the effect in half of the subjects.
